US10654843B2, “LMP7 inhibitors” (PRINCIPIA BIOPHARMA INC., priority 2014, dated 2020)
Like-named read-outs stand apart in the source and are kept apart here.

Key:
[1] = molecular target: immunoproteasome (LMP7/B5i) (Homo sapiens, UniProt P20618+P28062); assay: Caliper-based proteasome assay, immunoproteasome chymotrypsin-like activity; type: biochemical; details: human recombinant immunoproteasome 0.3 nM, FAM-labeled peptide substrate 1 μM, room temperature 3 h
Description: (§1) A Caliper-based proteasome assay (Caliper Life Sciences, Hopkinton, Mass.) was used to measure inhibition of the chymotrypsin-like activity of both immunoproteasome (LMP7/B5i) and the constitutive proteasome (B5c) for a compound of Formula (I). Serial dilutions of test compounds were incubated with either human recombinant immunoproteasome or constitutive proteasome (0.3 nM enzyme) and a carboxyfluorescein (FAM)-labeled peptide substrate FAM-TYETFKSIMKKSPF-NH2 (1 μM) at room temperature for 3 h. The reaction buffer was 20 mM Hepes pH 7.4, 0.01% bovine serum albumin, 0.015% SDS, 0.5 mM EDTA, 1% DMSO. The reaction was then terminated with a buffer containing the known proteasome inhibitor carfilzomib at a concentration of 5 uM. The peptide cleavage reaction product was quantified on a Caliper LabChip 3000. Percent inhibition was calculated for each compound dilution and the concentration that produced 50% inhibition was calculated. This value is presented as the IC50.

[2] = molecular target: constitutive proteasome (B5c) (Homo sapiens, UniProt P20618+P28074); assay: Caliper-based proteasome assay, constitutive proteasome chymotrypsin-like activity; type: biochemical; details: human recombinant constitutive proteasome 0.3 nM, FAM-labeled peptide substrate 1 μM, room temperature 3 h
Description: as §1

[3] = molecular target: T1, proteasome activity in HT-29 cells (enriched in constitutive proteasome) (Homo sapiens, UniProt P28074); assay: Inhibition of proteasome activity in cells (Proteasome-Glo), HT-29; type: cell-based; details: 2 hr incubation, Suc-LLVY-aminoluciferin, read-out: HT29 IC50
T1 construct: endogenous in cells; host or cells: HT-29
Description: (§2) The cell-based effects of the compound of the present disclosure on immunoproteasome were determined by measuring inhibition of proteasome activity in cells using the Proteasome-Glo™ Cell-Based Reagent (Promega, Madison Wis). The Proteasome-Glo™ assay contains a specific luminogenic proteasome substrate in a buffer optimized for cell permeabilization, proteasome activity, and luciferase activity. For the chymotrypsin-like activity, the peptide substrate is Suc-LLVY-aminoluciferin (Succinyl-leucine-leucine-valine-tyrosine-aminoluciferin). Cleavage of the substrate by proteasome results in luminescent signal which is proportional to the proteasome activity. The cell line THP-1 (a monocytic leukemia cell line enriched in immunoproteasome), the cell line HT-29 (a colorectal adenocarcinoma cell line enriched in constitutive proteasome), and primary human peripheral blood mononuclear cells (PBMC) were used to assess proteasome activity. Cells were seeded in a 96-well plate at 10,000 cells per well in RPMI 1640 high glucose medium with 10% fetal bovine serum (FBS). Compound dilutions were added to cells starting at a concentration of 5 uM and decreasing in tripling dilutions. The final DMSO concentration was 1%. The concentration range was adjusted as needed for compounds of different potencies. The cells treated with compounds were incubated for 2 hr at 37° C. in 5% CO2. At the end of the 2 hour incubation period, cells were transferred to white 384 well assay plates. 20 uL of Proteasome-Glo™ Reagent was added to each well and incubated for 10 minutes at room temperature. The plate was read in the Analyst HT instrument (Molecular Devices, Sunnyvale, Calif.) using luminescence mode. The percent inhibition of activity was plotted as a function of log compound concentration. The IC50 was then calculated for each compound using Prism software from GraphPad Software Inc. (San Diego, Calif).

[4] = molecular target: T2, proteasome activity in primary human peripheral blood mononuclear cells (PBMC) (Homo sapiens, UniProt P28062); assay: Inhibition of proteasome activity in cells (Proteasome-Glo), PBMC; type: cell-based; details: 2 hr incubation, Suc-LLVY-aminoluciferin
T2 construct: endogenous in cells; host or cells: primary human PBMC
Description: as §2

[5] = molecular target: T3, proteasome activity in HT-29 cells (Homo sapiens, UniProt P28074); assay: Durability of binding in cells, wash-out assay (Proteasome-Glo), HT-29; type: cell-based; details: 2 hours incubation, washout
T3 construct: endogenous in cells; host or cells: HT-29
Description: The durability of binding of proteasome inhibitors was assessed in cells using wash-out assays and the Proteasome-Glo™ Reagent kit. THP-1 cells, HT-29 cells, or PBMC were incubated with an 8-fold dilution series of inhibitor for 2 hours. Following 2 hours of incubation, cells were washed using 3 occasions of centrifugation followed by resuspension in culture medium. Following inhibitor washout, cells were returned to culture for either 30 minutes, 4 hours, or 18 hours. Cells were then transferred to white 384 plates, and 20 uL of Proteasome-Glo™ Reagent was added to each well for 10 minutes. Plates were then read on an Analyst HT plate reader using luminescence mode. The percent inhibition of activity was plotted as a function of log compound concentration. The IC50 was then calculated for each compound using Prism software from GraphPad.

[6] = 30 minutes in culture, read-out: HT29 (30 min) IC50
[7] = 4 hours in culture, read-out: HT29 (4 h) IC50

Row | Compound | IC50 [1] [nM] | IC50 [2] [nM] | IC50 [3] [nM] | IC50 [4] [nM] | IC50 [5, 6] [nM] | IC50 [5, 7] [nM]
1 | Cc1ccc(CNC(=O)[C@H](Cc2cccc(NC(=O)C(C#N)=CC(C)C)c2)NC(=O)[C@@H](NC(=O)c2cc(C)on2)[C@@H](C)O)cc1 [Example 24, N-((2S,3R)-1-(((S)-3-(3-(2-cyano-4-methylpent-2-enamido)phenyl)-1-((4-methyl-benzyl)amino)-1-oxopropan-2-yl)amino)-3-hydroxy-1-oxobutan-2-yl)-5-methylisoxazole-3-carboxamide] | 64 | 3210 | – | – | – | –
2 | Cc1ccc(CNC(=O)[C@H](CCCCN(C)C(=O)C(C#N)=CC(C)C)NC(=O)[C@@H](NC(=O)c2cc(C)on2)[C@@H](C)O)cc1 [Example 22, N-((2S,3R)-1-(((S)-6-(2-cyano-N,4-dimethylpent-2-enamido)-1-((4-methylbenzyl)-amino)-1-oxohexan-2-yl)amino)-3-hydroxy-1-oxobutan-2-yl)-5-methylisoxazole-3-carboxamide] | 37 | 704 | – | – | – | –
3 | Cc1ccc(CNC(=O)[C@H](CCc2cccc(C=C(C#N)C(=O)N(C)C)c2)NC(=O)[C@@H](NC(=O)c2cc(C)on2)[C@@H](C)O)cc1 [Example 15, N-((2S,3R)-1-(((S)-4-(3-(2-cyano-3-(dimethylamino)-3-oxoprop-1-en-1-yl)phenyl)-1-((4-methylbenzyl)amino)-1-oxobutan-2-yl)amino)-3-hydroxy-1-oxobutan-2-yl)-5-methylisoxazole-3-carboxamide] | 20 | 61 | 84 | 13 | > 5000 | > 5000
4 | Cc1ccc(CNC(=O)[C@H](CCCCNC(=O)C(C#N)=CC(C)C)NC(=O)[C@@H](NC(=O)c2cc(C)on2)[C@@H](C)O)cc1 [Example 21, N-((2S,3R)-1-(((S)-6-(2-cyano-4-methylpent-2-enamido)-1-((4-methylbenzyl)-amino)-1-oxohexan-2-yl)amino)-3-hydroxy-1-oxobutan-2-yl)-5-methylisoxazole-3-carboxamide] | 5 | 143 | 646 | 23 | > 5000 | –
5 | Cc1ccc(CNC(=O)[C@H](CC2CCN(C(=O)C(C#N)=CC(C)C)CC2)NC(=O)[C@@H](NC(=O)c2cc(C)on2)[C@@H](C)O)cc1 [Example 29, N-((2S,3R)-1-(((S)-3-(1-(2-cyano-4-methylpent-2-enoyl)piperidin-4-yl)-1-((4-methylbenzyl)amino)-1-oxopropan-2-yl)amino)-3-hydroxy-1-oxobutan-2-yl)-5-methylisoxazole-3-carboxamide] | 103 | 788 | – | – | – | –
6 | Cc1ccc(CNC(=O)[C@H](Cc2cccc(N(C)C(=O)C(C#N)=CC(C)C)c2)NC(=O)[C@@H](NC(=O)c2cc(C)on2)[C@@H](C)O)c(F)c1 [Example 27, N-((2S,3R)-1-(((S)-3-(3-(2-cyano-N,4-dimethylpent-2-enamido)phenyl)-1-((2-fluoro-4-methylbenzyl)amino)-1-oxopropan-2-yl)amino)-3-hydroxy-1-oxobutan-2-yl)-5-methylisoxazole-3-carboxamide] | 21 | 147 | 360 | 13 | 3800 | > 5000
7 | Cc1ccc(CNC(=O)[C@H](COc2cccc(C=C(C#N)C(=O)N(C)C)c2)NC(=O)[C@@H](NC(=O)c2cc(C)on2)[C@@H](C)O)cc1 [Example 1, N-((2S,3R)-1-(((S)-3-(3-(2-cyano-3-(dimethylamino)-3-oxoprop-1-en-1-yl)phenoxy)-1-((4-methylbenzyl)amino)-1-oxopropan-2-yl)amino)-3-hydroxy-1-oxobutan-2-yl)-5-methylisoxazole-3-carboxamide] | 31 | 274 | – | – | – | –
8 | Cc1ccc(CNC(=O)[C@H](COc2cccc(C=C(C#N)n3cncn3)c2)NC(=O)[C@@H](NC(=O)c2cc(C)on2)[C@@H](C)O)cc1 [Example 8a, N-((2S,3R)-1-(((S)-3-(3-(2-cyano-2-(1H-1,2,4-triazol-1-yl)vinyl)phenoxy)-1-((4-methylbenzyl)amino)-1-oxopropan-2-yl)amino)-3-hydroxy-1-oxobutan-2-yl)-5-methylisoxazole-3-carboxamide] | 17 | 120 | 200 | 10 | 580 | > 5000
9 | Cc1ccc(CNC(=O)[C@H](CCCCNC(=O)C(C#N)=CC(C)(C)C)NC(=O)[C@@H](C)NC(=O)c2cc(C)on2)cc1 [Example 21d, N—((R)-1-(((S)-6-(2-cyano-4,4-dimethylpent-2-enamido)-1-((4-methylbenzyl)amino)-1-oxohexan-2-yl)amino)-1-oxopropan-2-yl)-5-methylisoxazole-3-carboxamide] | 144 | 3950 | – | – | – | –
10 | Cc1ccc(CNC(=O)[C@H](Cc2cccc(N(C)C(=O)C(C#N)=CC(C)C)c2)NC(=O)[C@@H](NC(=O)c2cc(C)on2)[C@@H](C)O)cc1 [Example 25, N-((2S,3R)-1-(((S)-3-(3-(2-cyano-N,4-dimethylpent-2-enamido)phenyl)-1-((4-methylbenzyl)amino)-1-oxopropan-2-yl)amino)-3-hydroxy-1-oxobutan-2-yl)-5-methylisoxazole-3-carboxamide] | 29 | 1450 | 1180 | 15 | > 5000 | > 5000
11 | Cc1ccc(CNC(=O)[C@H](COc2cccc(C=C(C#N)C(=O)NC(C)(C)C)c2)NC(=O)[C@@H](NC(=O)c2cc(C)on2)[C@@H](C)O)c(F)c1 [Example 7, N-((2S,3R)-1-(((S)-3-(3-(3-(tert-butylamino)-2-cyano-3-oxoprop-1-en-1-yl)phenoxy)-1-((2-fluoro-4-methylbenzyl)amino)-1-oxopropan-2-yl)amino)-3-hydroxy-1-oxobutan-2-yl)-5-methylisoxazole-3-carboxamide] | 11 | 2140 | – | – | – | –
